A value given as a limit tells only on which side of the number the result lay.

The record followed here is US7709532B2, “Methods for improving bioavailability of a renin inhibitor” (Novartis AG, priority 2004, dated 2010).

Data set [1] in a line: In situ bile-duct cannulated rat experiment (biliary clearance). The settings on record: for effect on 14C concentration in plasma: i.v. bolus of inhibitor (PSC833 10 mg/kg, probenecid 50 mg/kg) during constant infusion of [14C]-SPP100 hemifumarate.
Experimental: The effect in situ of co-administration of an efflux protein inhibitor, e.g., a MDR1 inhibitor, on the biliary excretion of a renin inhibitor may be investigated by comparing the amount of compound excreted into bile, in the presence and the absence of an efflux protein inhibitor.
The animals that may be used are, e.g., male albino HAN:WIST rats, 4 to 5 animals in each treatment group.
For all treatment groups blood samples are collected at 0.5, 1, 1.33, 1.67, 2, 2.33, 2.67, 3 h after treatment and blood is immediately processed to plasma. Bile is collected for the time frame of 1 to 3 h in intervals of 20 min.
• for total radioactivity in all samples: LSC; LOQ 3.4 μg/L for plasma and bile; and • for detection of metabolite pattern in selected pools of samples: HPLC with radioactivity detection.
The nature of another data set: in vitro. The settings on record: human, Caco-2. The text has this:
(§1) Alternatively, the in vitro transporter affinity of a drug substance can be determined and approximated by a Caco-2 cell assay as described, e.g., in Camenisch et al., Pharm. Act. Helv. 71, 309-327 (1996), or as illustrated herein in the Examples. The identification of the transporter protein and the efficacy of a compound to inhibit the efflux system involved may as well be determined in the Caco-2 cell assay.
(§2) Caco-2 cell monolayers grown on PET filters for 21-25 days are used for the transport experiments. The flux of compounds across Caco-2 cell monolayers grown on PET filters as well as across PET filters alone without Caco-2 cells is determined as follows: Prior to the transport experiment, the culture medium in the acceptor compartment (0.2 mL for apical and 1.0 mL for basolateral sides) is replaced with acceptor solution (HBSS, when relevant containing the inhibitor of interest) preincubated at 37° C. To start the experiment, the medium in the donor compartment (0.35 mL for apical and 1.15 mL for basolateral sides) is replaced with donor solution (compound in HBSS, when relevant containing inhibitor of interest) pre-incubated at 37° C. Aliquots of 150 μL are removed from the donor and the acceptor side after about 1 and 120 min. Transport experiments in both apical-to-basolateral and basolateral-to-apical directions are performed in triplicate at 37° C. in an incubator without shaking.
(§3) The suitability of Caco-2 cells for transport experiments is examined by measuring the permeability of [^3H]-mannitol at >0.1 μM and [^3H]-propranolol at >0.1 μM from apical to basolateral sides for 120 min in a total of 6 representative cell monolayers (3 for each compound) within the same batch of cells.
(§4) Radioactive samples are analyzed by liquid scintillation counting. All other non-radiolabeled samples are kept frozen at −20° C. until analysis by liquid chromatography/tandem mass spectrometry (LC-MS/MS).
(§5) Transport values of the compounds tested are determined using the following equation (Artursson et al., Biochem. Biophys. Res. Comm. 175: 880-885, 1991):
(§6) Papp values are presented as means ± standard deviations of the transport experiments performed (n=3). The statistical significance in differences between any two given data sets is examined by t-test. The probability level for assignment of significance of difference is p<0.025. All statistical analyses were performed using Microsoft EXCEL 5.0c.

In data set [2] the test system is T1, COCCCOc1cc(C[C@@H](C[C@H](N)[C@@H](O)C[C@H](C(=O)NCC(C)(C)C(N)=O)C(C)C)C(C)C)ccc1OC.
T1 construct: host or cells: Sf9 (Spodoptera frugiperda) membrane vesicles
The data set can be described thus: ATPase assay in membrane vesicles expressing high levels of MDR1. It counts as biochemical, human. The following applies: other: membrane vesicles expressing high levels of MDR1; pH 7.4; 37.0 °C.
Source text: The efflux protein(s) involved in the drug efflux of a drug substance may be identified, and the corresponding kinetic parameters may be determined, i.e., Michaelis-Menten Constant and Maximal Drug Transport (Km and Jmax) using methods known in the art, e.g., by an ATPase assay using Sf9 (Spodoptera fruigiperda) membrane vesicles expressing high levels of the selected ABC transporter. In this assay the ABC transporters remove substrates out of cells by using ATP hydrolysis as an energy source. ATP hydrolysis yields inorganic phosphate (Pi), which can be detected by a simple colorimetric reaction. The amount of Pi liberated by the transporter is proportional to the activity of the transporter. Membrane preparations containing ABC transporters show a baseline ATPase activity that varies for different transporters. […]
Efflux mediated by the human MDR1, the human MRP1 or the human MRP2 is measured by incubating the purified membrane vesicles in the absence and the presence of a stimulating agent (Verapamil [40 μM] for MDR1, NEM-GS [10 mM] for MRP1 and Probenecid [1 mM] for MRP2) with different concentrations of a drug substance [0.046, 0.137, 0.41, 1.23, 3.7, 11.1, 33.3 and 100 μM] in transport buffer at pH 7.4 at 37° C. […]
After incubating the OD is measured at 730 nm. Using a previously determined phosphate standard curve the Pi liberated [nmol/well] can be calculated. […]

In another data set the test system is Caco-2 cell monolayers. The data set can be described thus: in vitro. The settings on record: human, Caco-2, 120 min.
Source text: as §1, §2, §3, §4, §5, §6

The nature of data set [3]: In vivo bioavailability experiment, single oral administration. Set-up: species or system rat. The following applies: for Cmax / Tmax: male, HAN:WIST, rat, plasma, po.
Source text: Similarly, the effect in vivo of co-administration of an efflux protein inhibitor, e.g., a MDR1 inhibitor, on the bioavailability of a renin inhibitor may be investigated by comparing the pharmacokinetic parameters, Cmax and AUCs, in the presence and the absence of an efflux protein inhibitor.
The animals that may be used are, e.g., male albino HAN:WIST rats, 5 animals in each treatment group.
Plasma is used for biochemical analysis.
[4] abbreviates: probenecid 50 mg/kg i.v. during constant infusion of [14C]-SPP100 hemifumarate.
Where [5] appears, read: 6 mg base/kg, rat plasma, oral SPP100 hemifumarate 6 mg base/kg + vehicle.
Where [6] appears, read: 6 mg/kg, oral SPP100 6 mg base/kg + PSC833 5 mg/kg.
The mark [7] stands for this setting: 6 mg/kg, oral SPP100 6 mg base/kg + PSC833 12.5 mg/kg.
Setting [8] is: 6 mg/kg, oral SPP100 6 mg base/kg + PSC833 25 mg/kg.
Setting [9] is: 6 mg/kg, oral SPP100 6 mg base/kg + PSC833 50 mg/kg.

`C/C=C/C[C@@H](C)C(=O)[C@H]1C(=O)N[C@@H](C(C)C)C(=O)N(C)CC(=O)N(C)[C@@H](CC(C)C)C(=O)N[C@@H](C(C)C)C(=O)N(C)[C@@H](CC(C)C)C(=O)N[C@@H](C)C(=O)N[C@H](C)C(=O)N(C)[C@@H](CC(C)C)C(=O)N(C)[C@@H](CC(C)C)C(=O)N(C)[C@@H](C(C)C)C(=O)N1C` [PSC833]: the “effect on 14C concentration in bile” value in data set [1] (PSC833 10 mg/kg i.v. during constant infusion of [14C]-SPP100 hemifumarate) is “significant decrease”. Besides, in data set [1], the “effect on 14C concentration in plasma” value is recorded as “trend towards a time dependent increase”. Besides, the “biliary clearance of [14C]-labeled compounds, % of the value obtained before administration” value in data set [1] (i.v. bolus of inhibitor during constant i.v. infusion of [14C]-SPP100 hemifumarate, PSC833 10 mg/kg) was “approximately 7%”.
Turning to `CCCN(CCC)S(=O)(=O)c1ccc(C(=O)O)cc1` [probenecid], in data set [1], the “effect on 14C concentration in plasma” value is given as “no effect”. Also, in data set [1] (setting [4]), the “biliary clearance before and after administration” value is “similar”; the “decrease of the [14C] concentration in bile vs value prior to administration” value is reported as “about 40%”.
`CC(C)NCC(O)COc1cccc2ccccc12` (centres unmarked) [Propranolol, reference compound] came in with a Papp A→B at 120 min in the data set “in vitro” of less than 15 ×10⁻⁶ cm/s.
Consider human MDR1 (Homo sapiens), for which the Michaelis constant (Km) in data set [2] is 3 µM.
For the compound `OC[C@@H](O)[C@@H](O)[C@H](O)[C@H](O)CO` [Mannitol, reference compound], the Papp A→B at 120 min in “in vitro” is less than 0.5 ×10⁻⁶ cm/s.
Compound `COCCCOc1cc(C[C@@H](C[C@H](N)[C@@H](O)C[C@H](C(=O)NCC(C)(C)C(N)=O)C(C)C)C(C)C)ccc1OC` [SPP100, (2S,4S,5S,7S)-5-amino-4-hydroxy-2-isopropyl-7-[4-methoxy-3-(3-methoxy-propoxy)-benzyl]-8-methyl-nonanoic acid (2-carbamoyl-2-methyl-propyl)-amide hemifumarate] gave a Papp A→B at 120 min, 1 μM in the data set “in vitro” of approximately 0.0333 ×10⁻⁶ cm/s. In the data set “in vitro”, this compound gave a Papp A→B at 120 min, 10 µM of approximately 1.17 ×10⁻⁶ cm/s. The Papp B→A at 120 min, 1 µM in the data set “in vitro” was approximately 1.67 ×10⁻⁶ cm/s. Besides, in the data set with Caco-2 cell monolayers, the intrinsic permeability was less than 80%. Also, the Cmax in data set [3] (setting [5]) is approximately 24.8 ng/mL; in data set [3] (setting [6]) it was 35.7 ± 18 ng/mL; in data set [3] (setting [7]), 115 ± 93 ng/mL; in data set [3] (setting [8]), 81.4 ± 19 ng/mL; in data set [3] (setting [9]) it was 26.7 ± 18 ng/mL. Further, the Tmax in data set [3] (setting [5]) is 0.44 ± 0.1 h; in data set [3] (setting [6]), 4.8 ± 1.8 h; in data set [3] (setting [7]), 4.95 ± 4.2 h; in data set [3] (setting [8]) it was 15.2 ± 18 h; in data set [3] (setting [9]), 3.06 ± 1.9 h. Moreover, the “dose-normalized AUC(0-tlast), times higher than in the vehicle group” value is “about 23 times” in data set [3] (oral SPP100 6 mg base/kg + PSC833 5 mg/kg), approximately 69 times in data set [3] (oral SPP100 6 mg base/kg + PSC833 12.5 mg/kg), approximately 76 times in data set [3] (oral SPP100 6 mg base/kg + PSC833 25 mg/kg) and approximately 17 times in data set [3] (oral SPP100 6 mg base/kg + PSC833 50 mg/kg). For the same compound, the “increase of dose-normalized AUC(0-tlast) compared to control group solely dosed with SPP100” value in data set [3] (orally dosed rats, in the presence of PSC833) is reported as “about 70 fold”. Further, in data set [3] (rat plasma, oral SPP100 hemifumarate 6 mg base/kg + vehicle), the “dose-normalized AUC(0-tlast)” value was 2.38±3.4 (ng*h/mL)/(mg/kg).

As usually defined, the Papp A→B is how fast a substance crosses the layer from the apical side. Read a low Papp A→B as poor permeation. For orientation: Km means the concentration of substrate that gives half-maximal velocity. One may read the Papp B→A as the apparent permeability from the basolateral to the apical side of a cell layer. Broadly, the Cmax is the maximum level reached in the sampled fluid or tissue. As usually defined, the Tmax is the time at which the peak concentration occurs.
